Assay [1] has as its target T1, Mouse histone methyltransferase G9a (969-1263) (Mus musculus, UniProt Q9Z148).
T1 construct: The 6His-sumo mG9a (969-1263) protein was purified using the following procedure; 6His-sumo (cleaved yes); made in house; host or cells: Escherichia coli BL21 (DE3)
T1 sequence (Q9Z148 969-1263): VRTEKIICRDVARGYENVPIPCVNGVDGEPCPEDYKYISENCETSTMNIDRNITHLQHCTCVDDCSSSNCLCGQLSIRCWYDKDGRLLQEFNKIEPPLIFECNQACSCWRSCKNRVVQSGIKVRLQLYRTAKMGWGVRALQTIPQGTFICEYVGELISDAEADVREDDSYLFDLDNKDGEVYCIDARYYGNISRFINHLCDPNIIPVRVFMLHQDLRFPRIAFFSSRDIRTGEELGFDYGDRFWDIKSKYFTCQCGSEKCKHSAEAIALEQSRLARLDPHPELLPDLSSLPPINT
Kind of assay: MALDI-TOF methylation study of G9a inhibition. The following applies: inhibitors at 5 μM concentration for 30 min. The format is biochemical.

Another assay relates to HCT-8. Kind of assay: Cytotoxicity / anti-proliferation assay (CCK-8), HCT-8. Format: cell-based. The following applies: Homo sapiens, 72 h, CCK-8 kit. The method, then: Then the cells were exposed to the different inhibitors with various concentrations for 72 h. […] EC50s were calculated using GraphPad Prizm statistical package with sigmoidal variable slope dose response curve fit.
Cell anti-proliferation assays were performed to determine the toxicity of these inhibitors. […] These compounds were further evaluated against the control cell line HEK293 to test their toxicity with a non-cancerous cell line.

SMILES strings stand for the structures.

In general, inhibition refers to the change of the read-out against control, counted positive when it falls. The low end stands for a weak effect, the high end for a strong effect. By EC50 is commonly meant the concentration needed to bring the measured effect to its halfway point. The low end stands for greater potency, the high end for weaker potency. In assay [1], `CN1CCCN(c2nc(NC3CCN(Cc4ccccc4)CC3)c3ccc(OCCCCCCC(=O)NO)cc3n2)CC1` [Compound 30] gave an inhibition at 5 µM of 17.9 ± 5.51%. Also, in the assay with HCT-8, the EC50 was greater than 100 µM.

Source of the values: US20190322643A1 (Georgia State University Research Foundation, Inc., priority 2016, published 2019).
